Data as given in patent US6355799B1, “Substituted benzene compounds, process for their preparation, and herbicidal and defoliant compositions containing them” (ISK Americas Incorporated, priority 1997, dated 2002).

Assays:
Format in all cases: in vivo
[1] = tested on: ivyleaf morningglory (Ipomoea hederacea, IPOHE); assay: Pre-emerge test, greenhouse herbicide activity screening; details: pre-emerge, 14 days after application, scale 0-100
Outline: (§1)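 Visual ratings on a 0-100 scale (0 no damage, 100 all plants dead) were taken at 14 days after treatment. Rates of 15-1000 g ai/ha in acetone, 187 l/ha, were sprayed onto soil one day after planting (pre-emerge) or onto 2-3 leaf plants with 0.25% v/v surfactant (post-emerge).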

[2] = tested on: velvetleaf (Abutilon theophrasti, ABUTH); assay: as above; details: pre-emerge, 14 days after application, scale 0-100
Outline: as §1

[3] = tested on: green foxtail (Setaria viridis, SETVI); assay: as above; details: pre-emerge, 14 days after application, scale 0-100
Outline: as §1

[4] = tested on: sicklepod (Cassia obtusifolia, CASOB); assay: as above; details: pre-emerge, 14 days after application, scale 0-100
Outline: as §1

[5] = tested on: large crabgrass (Digitaria sanguinalis, DIGSA); assay: as above; details: pre-emerge, 14 days after application, scale 0-100
Outline: as §1

[6] = tested on: barnyardgrass (Echinochloa crus-galli, ECHCG); assay: as above; details: pre-emerge, 14 days after application, scale 0-100
Outline: as §1

[7] = tested on: johnsongrass (Sorghum halepense, SORHA); assay: as above; details: pre-emerge, 14 days after application, scale 0-100
Outline: as §1

[8] = tested on: lambsquarters (Chenopodium album, CHEAL); assay: as above; details: pre-emerge, 14 days after application, scale 0-100
Outline: as §1

[9] = tested on: field corn (Zea mays L., var. Dekalb 535, CORN); assay: Pre-emerge test, crop safety; details: pre-emerge, 14 days after application, scale 0-100
Outline: (§2)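 Compounds in acetone were track-sprayed at 15-1000 g ai/ha (187 l/ha) on sandy loam pots: pre-emerge one day after seeding, post-emerge at 2-3 leaf stage with 0.25% v/v non-ionic surfactant. Phytotoxicity was rated 14 days later on a 0 (no damage) to 100 (complete death) scale.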

[10] = tested on: upland rice (Oryza sp., var. Tebonnet, RICE); assay: Pre-emerge test, crop safety; details: pre-emerge, 14 days after application, scale 0-100
Outline: as §2

[11] = tested on: field corn (Zea mays L., var. Dekalb 535, CORN); assay: Post-emerge test, crop safety; details: post-emerge, 14 days after application, rating scale 0-100
Outline: as §1

[12] = tested on: upland rice (Oryza sp., var. Tebonnet, RICE); assay: Post-emerge test, crop safety; details: post-emerge, 14 days after application, rating scale 0-100
Outline: as §1

[13] = tested on: ivyleaf morningglory (Ipomoea hederacea, IPOHE); assay: Post-emerge test, greenhouse herbicide activity screening; details: post-emerge, 14 days after application, rating scale 0-100
Outline: (§3)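 Herbicidal damage is scored 0 (none) to 100 (complete plant death) two weeks after a simulated field spray. Rates span 15–1000 g ai/ha, delivered in acetone at 187 l/ha. For post-emergence treatments, plants have 2–3 leaves and the spray carries 0.25% v/v non-ionic surfactant.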

[14] = tested on: velvetleaf (Abutilon theophrasti, ABUTH); assay: as above; details: post-emerge, 14 days after application, rating scale 0-100
Outline: as §3

[15] = tested on: green foxtail (Setaria viridis, SETVI); assay: as above; details: post-emerge, 14 days after application, rating scale 0-100
Outline: as §3

[16] = tested on: sicklepod (Cassia obtusifolia, CASOB); assay: as above; details: post-emerge, 14 days after application, rating scale 0-100
Outline: as §3

[17] = tested on: large crabgrass (Digitaria sanguinalis, DIGSA); assay: as above; details: post-emerge, 14 days after application, rating scale 0-100
Outline: as §3

[18] = tested on: barnyardgrass (Echinochloa crus-galli, ECHCG); assay: as above; details: post-emerge, 14 days after application, rating scale 0-100
Outline: as §3

[19] = tested on: johnsongrass (Sorghum halepense, SORHA); assay: as above; details: post-emerge, 14 days after application, rating scale 0-100
Outline: as §3

[20] = tested on: redroot pigweed (Amaranthus retroflexus, AMARE); assay: as above; details: post-emerge, 14 days after application, rating scale 0-100
Outline: as §3

[21] = tested on: lambsquarters (Chenopodium album, CHEAL); assay: as above; details: post-emerge, 14 days after application, rating scale 0-100
Outline: as §3

[22] = tested on: redroot pigweed (Amaranthus retroflexus, AMARE); assay: Pre-emerge test, greenhouse herbicide activity screening; details: pre-emerge, 14 days after application, scale 0-100
Outline: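 Plants grown in 10 cm pots of sandy loam mix received acetone-dissolved compounds through a moving flat-fan nozzle. Doses ranged from 15 to 1000 g ai/ha. Pre-emerge pots were seeded one day earlier, post-emerge pots 8–21 days earlier. Fourteen days on, each pot was graded 0–100 for damage.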

## COc1c(Cl)cc(F)c(-n2c(=O)cc(C(F)(F)F)n(C)c2=O)c1NC(=O)c1c(C)cccc1C [2-124]
[1]; 63 g ai/ha
  phytotoxicity rating IPOHE: 0
[1]; 250 g ai/ha
  phytotoxicity rating IPOHE: 20
[2]; 63 g ai/ha
  phytotoxicity rating ABUTH: 0
[2]; 250 g ai/ha
  phytotoxicity rating ABUTH: 80
[3]; 63 g ai/ha
  phytotoxicity rating SETVI: 0
[3]; 250 g ai/ha
  phytotoxicity rating SETVI: 10
[4]; 63 g ai/ha
  phytotoxicity rating CASOB: 0
[4]; 250 g ai/ha
  phytotoxicity rating CASOB: 20
[5]; 63 g ai/ha
  phytotoxicity rating DIGSA: 0
[5]; 250 g ai/ha
  phytotoxicity rating DIGSA: 0
[6]; 63 g ai/ha
  phytotoxicity rating ECHCG: 0
[6]; 250 g ai/ha
  phytotoxicity rating ECHCG: 0
[7]; 63 g ai/ha
  phytotoxicity rating SORHA: 0
[7]; 250 g ai/ha
  phytotoxicity rating SORHA: 0
[8]; 63 g ai/ha
  phytotoxicity rating CHEAL: 20
[8]; 250 g ai/ha
  phytotoxicity rating CHEAL: 80
[9]; 63 g ai/ha
  phytotoxicity rating CORN (crop damage): 0
[9]; 250 g ai/ha
  phytotoxicity rating CORN (crop damage): 0
[10]; 63 g ai/ha
  phytotoxicity rating RICE (crop damage): 0
[10]; 250 g ai/ha
  phytotoxicity rating RICE (crop damage): 10
[11]; 63 g ai/ha
  CORN phytotoxicity rating (crop damage): 0
[11]; 250 g ai/ha
  CORN phytotoxicity rating (crop damage): 5
[12]; 63 g ai/ha
  RICE phytotoxicity rating (crop damage): 0
[12]; 250 g ai/ha
  RICE phytotoxicity rating (crop damage): 0
[13]; 63 g ai/ha
  IPOHE phytotoxicity rating: 20
[13]; 250 g ai/ha
  IPOHE phytotoxicity rating: 30
[14]; 63 g ai/ha
  ABUTH phytotoxicity rating: 40
[14]; 250 g ai/ha
  ABUTH phytotoxicity rating: 95
[15]; 63 g ai/ha
  SETVI phytotoxicity rating: 0
[15]; 250 g ai/ha
  SETVI phytotoxicity rating: 0
[16]; 63 g ai/ha
  CASOB phytotoxicity rating: 0
[16]; 250 g ai/ha
  CASOB phytotoxicity rating: 20
[17]; 63 g ai/ha
  DIGSA phytotoxicity rating: 0
[17]; 250 g ai/ha
  DIGSA phytotoxicity rating: 0
[18]; 63 g ai/ha
  ECHCG phytotoxicity rating: 0
[18]; 250 g ai/ha
  ECHCG phytotoxicity rating: 0
[19]; 63 g ai/ha
  SORHA phytotoxicity rating: 0
[19]; 250 g ai/ha
  SORHA phytotoxicity rating: 0
[20]; 63 g ai/ha
  AMARE phytotoxicity rating: 30
[20]; 250 g ai/ha
  AMARE phytotoxicity rating: 90
[21]; 63 g ai/ha
  CHEAL phytotoxicity rating: 30
[21]; 250 g ai/ha
  CHEAL phytotoxicity rating: 50
[22]; 63 g ai/ha
  phytotoxicity rating AMARE: 40
[22]; 250 g ai/ha
  phytotoxicity rating AMARE: 100
